Data from patent US20220332876A1, “HYDROPHILIC-HYDROPHOBIC COPOLYMER CARRYING SHORT CHAIN FATTY ACID ESTER” (UNIVERSITY OF TSUKUBA, priority 2019, published 2022).

Key:
[1] = Antidiabetic test (glucose resistance test, pancreatic histology); format: in vivo, C57BL/6J mice; details: for size of the islets of Langerhans: H & E stained pancreatic tissue; for glucose concentration in glucose resistance test: glucose 2 g/kg orally, [glucose]60 min−[glucose]0 min, compared with the diabetic model mice
Description: (§1) Seven 7 to 8-week-old C57BL/6J mice (male) per group were obtained from Charles River Japan, Inc (Yokohama). These mice were bred while being freely fed with a standard solid feed at controlled temperature (23±1° C.) and humidity (50±5%) in a controlled temperature (23±1° C.) and humidity (50±5%) under non-pathogenic conditions in 12 hours dark/light cycles. The mice were randomly divided into the following administration groups of GP1 to GP6, and allowed to freely drink each sample described until Day 36. One day later, a glucose resistance test was performed. In the test, the body weight and sample consumption for each mouse were monitored every day. The sample was then replaced with drinking water until the end of the test (Day 40).
(2) The glucose resistance test was performed to evaluate the therapeutic effects of short chain fatty acids in controlling the metabolism of the administered glucose. Sixteen (16) hours after overnight constraint, glucose (2 g/kg) was orally administered to the mice. One hour before and after the glucose administration, 10 μL of blood was collected from the tail vein, and mixed with heparin-containing (50 units/mL) saline in a volume (v:v) ratio of 1:1. A glucose concentration in the diluted blood was measured by FUJI DRY-CHEM 7000V (FUJIFILM Corporation). A final blood glucose concentration was calculated by the following equation:
Final glucose concentration (mg/mL)=[glucose]60 min−[glucose]0 min
(§2) The organs of the mice taken out after dissection were fixed by immediately putting them in a 10% neutral formalin solution and immersing them therein for 1 day. Thereafter, the solution was replaced with a 70% ethanol solution for paraffin embedding. In accordance with a routine method, all the organs after the paraffin embedding were processed into tissue sections with a thickness of 5 μm, which were hematoxylin/eosin (HE) stained by a routine method. The tissue sections were dehydrated with high-concentration alcohol, washed with xylene, then fixed, and subjected to microscope examination (biorevo, BZ-9000, Keyence). A region of the islets of Langerhans was determined by ImageJ software (NIH). The results are illustrated in FIG. 30. […] The t-test is the same as described above.

[2] = mouse, in vivo
Description: as §1
These organs were stored in a 10% neutral buffer for further histological analysis. The Student's t-test is the same as described above.
as §2, with “All” for “In accordance with a routine method, all”, “alcohol and” for “alcohol,”, “followed by” for “then fixed, and subjected to”, “villus length” for “region of the islets of Langerhans”, “measured” for “determined”, “(NIH).” for “(NIH). The results are illustrated in FIG. 30.”

melanoma B16F10 cells = assay: Effect 2 as radiation enhancer (melanoma xenograft model); format: in vivo, C57BL/6J mice; details: for tumor weight / tumor size at the end of the test: Day 6 after irradiation
Description: (§3) Five or seven 5 to 7-week-old C57BL/6J mice per group obtained similarly as in the above test were bred under similar conditions. 0.076×10^6 melanoma B16F10 cells per 100 μL (serum free DMEM) were injected subcutaneously into the outer side of the right thigh of each of the mice (Day 9 before irradiation). When the cancer volume reached from 350 to 560 mm^3, the mice were randomly divided into the following administration groups. The irradiation conditions were set to 10 Gy, 150 kV, 20 mA, Al+Cu (0.5 mm+0.1 mm) filtration, and 330 mm intervals.
The cancer volume was calculated in the same manner as described above.
GP4: Butyric acid (i.p.; 250 mg/kg) (6 hours before irradiation)+IR group (n=7)
GP5: Butyric acid (i.p.; 500 mg/kg) (24 hours before irradiation)+IR group (n=7)
GP6: BNP (i.p.: 500 mg/kg) (6 hours before irradiation)+IR group (n=7)
GP7: BNP (i.p.: 500 mg/kg) (12 hours before irradiation)+IR group (n=7)
(1) The data on cancer proliferation profiles by 5 Gy irradiation after butyric acid and NP administration in a melanoma xenograft model is illustrated in FIG. 33.
(2) The data on the cancer weight at the end of the test (Day 6 after irradiation) is illustrated in FIG. 32 as mean±SEM values (n=from 2 to 7). The t-test is the same as in Test 8 (5).

[3] = Body weight in radiation enhancer Test Example 10; format: in vivo, C57BL/6J mice
Description: as §3, with “When the cancer volume reached from 350 to 560 mm^3, the mice were randomly divided into the following administration groups.” left out
(3) The data on body weight changes in the mice as mean SD values (n=7) are illustrated in FIG. 35. The t-test is the same as described above.

[4] = Pharmacokinetic study (2): phenylbutyric acid monomer in plasma and liver by LC/MS; format: in vivo, ICR mice; details: 200 mg/kg (1.22 mmol-4PBA/kg); blood and liver
Description: Forty-five (45) 7-week-old ICR mice (male) were randomly divided into the following three groups. Doses for the administration groups 2GP and 3GP were determined so that the amount of phenylbutyric acid contained therein reached 200 mg/kg (1.22 mmol-4PBA/kg). After each sample is administered nearly simultaneously to all the mice, 1 mL of blood is taken by cardiac puncture, according to each endpoint (7 endpoints of 30 min, 1 h, 2 h, 4 h, 12 h, 16 h, 24 h), to separate plasma. The target organ, liver, was also taken out from each of the mice, and content of the phenyl butyric acid monomer was quantified by high performance liquid chromatography/mass spectrometry (LC/MS). The measurement results are illustrated in FIG. 43. In these figures, PBA was totally metabolized within 4 hours, whereas 4-Ph-BNP persistently released the phenylbutyric acid monomer in the blood and in the liver, and the release was not terminated even after 24 hours.
1GP: Saline (control, 3 mice) 2GP: 4-Phenylbutyric acid (7 endpoints (30 min, 1 h, 2 h, 4 h, 12 h, 16 h, and 24 h)×3 mice) 3GP: Ph-BNP (7 endpoints (30 min, 1 h, 2 h, 4 h, 12 h, 16 h, and 24 h)×3 mice)

Compound: CCCC(=O)O [butyric acid]
- size of the islets of Langerhans [1]: reduced
- glucose concentration in glucose resistance test [1]: no significant differences
- villus length in the duodenum, jejunum, ileum, and large intestine [2]: same trend
- tumor proliferation suppressive effect (order of groups) (melanoma B16F10 cells; i.p. 6 hours before 5 Gy irradiation): irradiation group <butyric acid (6 hours before) administration group
- tumor weight / tumor size at the end of the test (melanoma B16F10 cells; i.p. 6 hours before irradiation): significantly reduced
- tumor proliferation suppressive effect (order of groups) (melanoma B16F10 cells; i.p. 24 hours before 5 Gy irradiation): BNP (6 hours before) administration group=butyric acid (24 hours before) administration group
- tumor weight / tumor size at the end of the test (melanoma B16F10 cells; i.p. 24 hours before irradiation): significantly reduced
- body weight change / toxicity ([3]; i.p. before irradiation): body weight decrease is found

Compound: O=C(O)CCCc1ccccc1 [4-phenylbutyric acid]
- time until totally metabolized [4]: ≤ 4 h

Compound: CH3O—(CH2CH2O)m—CH2PhCH2[CH2CH(OC(═O)CH2CH2CH3)]nS(═S)OCH2CH3 [N721]
- villus length in the duodenum, jejunum, ileum, and large intestine [2]: did not have a shortened villus length or damage to the digestive tract
- body weight change / toxicity ([3]; mouse, in vivo, ip): does not have a body weight decrease

Compound: CCC(=O)O [propionic acid]
- size of the islets of Langerhans [1]: reduced
- glucose concentration in glucose resistance test [1]: no significant differences
- villus length in the duodenum, jejunum, ileum, and large intestine [2]: same trend
